Laboratory results taken from patent US7572890B2, “Recombinant human mannan-building proteins” (Fuso Pharmaceutical Industries, Ltd., priority 1998, dated 2009).
Read-outs that look alike come from different tables or passages of the source.

Tests used:
rhMBP (with Vitamin C) = target: T1, rhMBP (with Vitamin C) (Homo sapiens, UniProt P11226); assay: Sugar inhibition of rhMBP (cultured with vitamin C) binding to mannan (ELISA)
T1 construct: made in house; host or cells: CHO DG44 (dhfr-), neomycin/MTX-resistant clones; purified from culture supernatant on mannan-agarose
T1 sequence (P11226 21-248): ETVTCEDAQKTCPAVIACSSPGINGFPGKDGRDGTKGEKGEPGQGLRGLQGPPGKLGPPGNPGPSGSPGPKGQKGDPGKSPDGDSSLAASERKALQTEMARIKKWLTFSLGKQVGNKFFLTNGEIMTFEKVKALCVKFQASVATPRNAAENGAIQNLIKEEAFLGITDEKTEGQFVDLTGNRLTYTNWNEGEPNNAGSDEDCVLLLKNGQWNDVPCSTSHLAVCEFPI

[1] = target: T2, rhMBP (without Vitamin C) (Homo sapiens, UniProt P11226); assay: Sugar inhibition of rhMBP (cultured without vitamin C) binding to mannan (ELISA)
T2 construct: made in house; host or cells: CHO DG44 (dhfr-), neomycin/MTX-resistant clones; purified from culture supernatant on mannan-agarose
T2 sequence (P11226 21-248): as above

native hMBP = target: T3, native hMBP (Homo sapiens, UniProt P11226); assay: Sugar inhibition of native hMBP binding to mannan (ELISA)
T3 construct: samples of stepwise dilution of the native hMBP, rhMBP (cultured with vitamin C), rhMBP (cultured without vitamin C)
T3 sequence (P11226 21-248): as above

[2] = tested on: Influenza A virus A/Ibaraki/l/90 (H3N2); assay: Hemagglutination Inhibition (HI) activities; format: cell-based; details: for Minimum Protein Concentration for HI Activities: 16HAU virus, chicken erythrocytes
[3] = tested on: Influenza A virus A/Ibaraki/l/90; assay: Neutralization activities (focus reduction on MDCK cells); format: cell-based
[4] = tested on: Influenza A virus (H1N1 Yamagata virion, H3N2 Beijin virion); assay: Binding of rhMBP to blotted viral structural proteins: Influenza A virus; details: rhMBP 1.0 μg/ml; FIG. 20
Experimental: (§1) Binding activities on rhMBP to HIV-1, HBV and Influenza A virus were determined by electrophoresing the following viral structural proteins, transferring them to membranes, binding thereto rhMBP and detecting them with labeled antibody.
(§2) Necessary amounts of viral structural proteins for the electrophoresis were 0.25 μg of HIV-gp120 (HIVIIIB-gp120) (ADVANCED BIOTECHNOLOGIES INCORPORATED (ABI)), 0.25 μg of HIV-gp160 (HIVIIIB-gp160) (ABI), 10 μg of HBS (Hepatitis B Surface Antigen (HBsAg) (ABI), Subtype ad), Influenza A virus (IAV; presented by The Research Foundation For Osaka University Research Institute for Microbial Diseases), 5 μg of H1N1 Yamagata virion and 5 μg of H3N2 Beijin virion.
(§3) SDS-PAGE employed polyacrylamide gel having the concentration gradient of 4˜20%, and HIV-1 and HBS were electrophoresed under reducing condition. After the electrophoresis, they were transferred to Immobilon-P^SQ transfer membrane (Millipore) with NOVA BLOT™ electrophoretic transfer unit (Pharmacia) by using semi-dry electroblot buffer kit (Owl Scientific). After such transfer, they were blocked with BLOCKACE™ blocking solution (Dainippon Pharmaceutical) at room temperature for one hour. […]

[5] = tested on: Influenza A virus A/Ibaraki/1/90; format: cell-based; details: 0.5 and 1 μg/ml, three days; FIG. 21
[6] = tested on: HIV-1 (HIV-gp120, HIV-gp160); assay: Binding of rhMBP to blotted viral structural proteins: HIV-1; details: rhMBP 1.0 μg/ml; FIG. 20
Experimental: as §1, §2, §3

[7] = tested on: HBV (Hepatitis B Surface Antigen); assay: Binding of rhMBP to blotted viral structural proteins: HBV; details: rhMBP 1.0 μg/ml; FIG. 20
Experimental: as §1, §2, §3

[8] = Sugar binding activity of MBP on mannan-coated plates (ELISA); details: Table 1
Experimental: Microtiter Plates were treated with 100 μl of coating buffer (15 mM sodium carbonate, 35 mM sodium hydrogen carbonate, 0.05% sodium azide, pH 9.6) containing mannan (10 μg/ml:SIGMA) at 4° C. overnight. After each treatment step, the plates were washed three times with TBSNTC solution (TBS, 0.05% sodium azide, 0.05% TWEEN 20 (Registered Trade Mark), 5 mM calcium chloride). After completing the coating of the plates, the plates were treated and blocked with BLOCKACE™ blocking solution (Dainippon Pharmaceutical) at room temperature for one hour.
After washing them, samples of stepwise dilution of the native hMBP, rhMBP (cultured with vitamin C), rhMBP (cultured without vitamin C) having the concentration of 200, 100, 50, 25, 12.5, 6.25 ng/ml, combination samples of 200 ng/ml of each hMBP with EDTA added to be its concentration of 10 mM, and combination samples of 50 ng/ml of each hMBP with mannose added to be its concentration of 100 mM were prepared, thereafter, 100 μl of each of them were poured into each well and were incubated at 37° C. for one hour. […] After incubating them at room temperature for 30 minutes, 100 μl of 1M phosphoric acid were added thereto, and their absorbance were measured at 450 nm (Model 450 Microplate Reader; Bio-Rad). […]

guinea pig complement = assay: Complement activation: hemolysis of mannan-sensitized sheep erythrocyte
[9] = rhMBP (with Vitamin C), mannan-coated microtiter plates, read-out: I 50: Sugar concentration to halve binding activities with mannan
[10] = rhMBP (without Vitamin C), mannan-coated microtiter plates, read-out: I 50: Sugar concentration to halve binding activities with mannan
[11] = native hMBP, mannan-coated microtiter plates, read-out: I 50: Sugar concentration to halve binding activities with mannan

Row | Molecule | IC50 (rhMBP (with Vitamin C); [9]) [mM] | IC50 [1, 10] [mM] | IC50 (native hMBP; [11]) [mM] | also measured
1 | C[C@@H](O)[C@H](O)[C@H](O)[C@@H](O)C=O [D-Fucose] | 39.1 | 86.7 | 33.5 | 
2 | O=C[C@@H](O)[C@@H](O)[C@H](O)[C@H](O)CO [D-Mannose] |  |  |  | IC50 (rhMBP (with Vitamin C)): 6.7 mM; IC50 [1]: 6.8 mM; IC50 (native hMBP): 3.7 mM
3 | O=C[C@H](O)[C@@H](O)[C@@H](O)[C@H](O)CO [Galactose] |  |  |  | IC50 (rhMBP (with Vitamin C)): 29.8 mM; IC50 [1]: 36.7 mM; IC50 (native hMBP): 24.2 mM
4 | C[C@H](O)[C@@H](O)[C@@H](O)[C@H](O)C=O [L-Fucose] | 4.4 | 8.7 | 4.2 | 
5 | OC[C@H]1O[C@@H](O[C@H]2[C@H](O)[C@@H](O)C(O)O[C@@H]2CO)[C@H](O)[C@@H](O)[C@H]1O (stereo partly shown) [Lactose] | 46.6 | 59.4 | 36 | 
6 | OC[C@H]1O[C@H](O[C@H]2[C@H](O)[C@@H](O)[C@H](O)O[C@@H]2CO)[C@H](O)[C@@H](O)[C@@H]1O [Maltose] | 6.4 | 7.4 | 7.4 | 
7 | CC(=O)N[C@H]1C(O)O[C@H](CO)[C@H](O)[C@@H]1O (stereo partly drawn) [N-Acetyl-D-Galactosamine] | > 100 | > 100 | > 100 | 
8 | CC(=O)N[C@H]1C(O)O[C@H](CO)[C@@H](O)[C@@H]1O (stereo partly drawn) [N-Acetyl-D-Glucosamine] | 3.6 | 3.8 | 2.7 | 
9 | CC(=O)N[C@@H]1C(O)O[C@H](CO)[C@@H](O)[C@@H]1O (stereo partly drawn) [N-Acetyl-D-Mannosamine] | 6.9 | 6.9 | 4.4 | 
10 | native hMBP: natural Human Mannan-Binding Protein, used as comparator |  |  |  | Minimum Protein Concentration for HI Activities [2]: 40 ng/mL
11 | rhMBP (with Vitamin C): rhMBP from CHO clone cultured in medium with vitamin C added |  |  |  | Minimum Protein Concentration for HI Activities [2]: 80 ng/mL
12 | rhMBP (without Vitamin C): rhMBP from CHO clone cultured in medium without vitamin C |  |  |  | Minimum Protein Concentration for HI Activities [2]: 80 ng/mL
13 | rhMBP: recombinant human Mannan-Binding Protein expressed from pNOW1-hMBP in dhfr- CHO cells, purified on mannan-agarose |  |  |  | Neutralization activities on addition of mannose ([3]; 100 mM mannose): inhibited by addition of mannose; Neutralization activities for influenza virus (reduction rate of FFU) ([3]; FIG. 19, MDCK cells): had neutralization activities for influenza virus; Hemagglutination Inhibition (HI) activities compared with native hMBP ([2]; Table 2 and FIG. 18): not inferior to that by native hMBP; Binding activities to Influenza A virus [4]: have binding activities; Viral growth inhibition (gross area of virus-infected focus) [5]: reduced focus area infected by influenza viruses concentration-dependently; Binding activities to HIV-1 [6]: have binding activities; Binding activities to HBV [7]: have binding activities; Sugar binding specificities compared with native hMBP [8]: substantially identical to those by the native hMBP; Hemolysis of sensitized sheep erythrocyte (complement activation) (guinea pig complement; 1, 10, 100 and 1000 ng/tube, FIG. 22): hemolyzed concentration-dependently sensitized sheep erythrocyte substantially like the native hMBP; Complement activation on addition of mannose (guinea pig complement; mannose added): suppressed by an addition of mannose
